Among the data in patent US20090312521A1 (priority 2004, published 2009) are MIC values, retold here.

Converted amounts (≈) assume the structure as drawn. Non-standard residues stand in square brackets, D forms with d. Residues, ends and D or L forms follow the SMILES beside them. β3hY = N[C@H](CC(=O)O)Cc1ccc(O)cc1; NMeS = CN[C@@H](CO)C(=O)O; β3hS = N[C@@H](CO)CC(=O)O; Ava = NCCCCC(=O)O; GABA = NCCCC(=O)O; Sar = CNCC(=O)O

This assay has as its system E. coli ATCC 11775. The class given is cell-based. Conditions: ATCC 11775, 24 h. The protocol:
Lyophilized peptides were dissolved in NB to give a concentration of 400 μM and filtered using 0.22 μm filter discs (Millex GV, Durapore). An overnight culture in NB was adjusted to 5×10^6 CFU/mL and inoculated into the micro titer plate wells (10 μL) containing each 100 μL of a serial 2-fold dilution (200-0.4 μM) of the tested peptide in NB. Plates were incubated while gently shaking at 37 ° C. for 24 h. Next, 80 μL suspension of each well was transported into a flat-bottom 96-well plate (Costar). The absorbance was measured at 600 nm using a μQuant micro plate spectrophotometer (Bio-Tek Instruments). All peptides were measured in quadruplo. The peptide with sequence […] (see Otvos Jr, […]; Otvos, B. I.; Hoffmann, […].; Wade, […].; Bulet, P. Protein Sci. 2000, 9, 742) was used as negative control.
By MIC is commonly meant the lowest concentration that inhibits growth of the organism. Lower therefore signals inhibition by little substance. With `CC[C@H](C)[C@H](NC(=O)[C@@H]1CCCN1C(=O)[C@H](CCCNC(=N)N)NC(=O)[C@@H]1CCCN1C(=O)[C@H](Cc1cnc[nH]1)NC(=O)[C@H](CO)NC(=O)[C@@H](NC(=O)[C@@H]1CCCN1C(=O)[C@H](CCCNC(=N)N)NC(=O)[C@@H]1CCCN1C(=O)[C@H](CO)NC(=O)[C@H](Cc1ccc(O)cc1)NC(=O)[C@@H]1CCCN1C(=O)[C@H](CCCNC(=N)N)NC(=O)[C@@H]1CCCN1C(=O)[C@H](CCCCN)NC(=O)CN)[C@@H](C)O)C(=O)N[C@@H](CCCNC(=N)N)C(=O)N[C@H](C(=O)O)C(C)C` [Peptide 1, GKPRP YSPRP TSHPR PIRV, reference compound] (H-GKPRPYSPRPTSHPRPIRV-OH), the minimum inhibitory concentration (MIC) was found to be 6.3 µM (≈ 13.9 µg/mL). Molecule `CC[C@H](C)[C@H](NC(=O)[C@@H]1CCCN1C(=O)[C@H](CCCNC(=N)N)NC(=O)[C@@H]1CCCN1C(=O)[C@H](Cc1c[nH]cn1)NC(=O)[C@H](CO)NC(=O)[C@@H](NC(=O)[C@@H]1CCCN1C(=O)[C@H](CCCNC(=N)N)NC(=O)[C@@H]1CCCN1C(=O)[C@H](CO)N(C)C(=O)[C@H](Cc1ccc(O)cc1)NC(=O)[C@@H]1CCCN1C(=O)[C@H](CCCNC(=N)N)NC(=O)[C@@H]1CCCN1C(=O)[C@H](CCCCN)NC(=O)CN)[C@@H](C)O)C(=O)N[C@@H](CCCNC(=N)N)C(=O)N[C@H](C(=O)O)C(C)C` [Peptide 2, GKPRP Y^MeSPRP TSHPR PIRV] (H-GKPRPY[NMeS]PRPTSHPRPIRV-OH) yielded a minimal inhibitory concentration (MIC) of 25 µM (≈ 55.3 µg/mL). Next, `CC[C@H](C)[C@H](NC(=O)[C@@H]1CCCN1C(=O)[C@H](CCCNC(=N)N)NC(=O)[C@@H]1CCCN1C(=O)[C@H](Cc1c[nH]cn1)NC(=O)[C@H](CO)NC(=O)[C@@H](NC(=O)[C@@H]1CCCN1C(=O)[C@H](CCCNC(=N)N)NC(=O)[C@@H]1CCCN1C(=O)[C@H](CO)NC(=O)[C@H](Cc1ccccc1)NC(=O)[C@@H]1CCCN1C(=O)[C@H](CCCNC(=N)N)NC(=O)[C@@H]1CCCN1C(=O)[C@H](CCCCN)NC(=O)CN)[C@@H](C)O)C(=O)N[C@@H](CCCNC(=N)N)C(=O)N[C@H](C(=O)O)C(C)C` [Peptide 3, GKPRP FSPRP TSHPR PIRV] (H-GKPRPFSPRPTSHPRPIRV-OH; N-terminus assumed): 3.1 µM (≈ 6.77 µg/mL); `CC[C@H](C)[C@H](NC(=O)[C@@H]1CCCN1C(=O)[C@H](CCCNC(=N)N)NC(=O)[C@@H]1CCCN1C(=O)[C@H](Cc1c[nH]cn1)NC(=O)[C@H](CO)NC(=O)[C@@H](NC(=O)[C@@H]1CCCN1C(=O)[C@H](CCCNC(=N)N)NC(=O)[C@@H]1CCCN1C(=O)[C@@H](NC(=O)[C@H](Cc1ccccc1)NC(=O)[C@@H]1CCCN1C(=O)[C@H](CCCNC(=N)N)NC(=O)[C@@H]1CCCN1C(=O)[C@H](CCCCN)NC(=O)CN)[C@@H](C)O)[C@@H](C)O)C(=O)N[C@@H](CCCNC(=N)N)C(=O)N[C@H](C(=O)O)C(C)C` [Peptide 5, GKPRP FTPRP TSHPR PIRV] (H-GKPRPFTPRPTSHPRPIRV-OH; N-terminus assumed): 3.1 µM (≈ 6.81 µg/mL). `CC[C@H](C)[C@H](NC(=O)[C@@H]1CCCN1C(=O)[C@H](CCCNC(=N)N)NC(=O)[C@@H]1CCCN1C(=O)[C@H](Cc1c[nH]cn1)NC(=O)[C@H](CO)NC(=O)[C@@H](NC(=O)[C@@H]1CCCN1C(=O)[C@H](CCCNC(=N)N)NC(=O)[C@@H]1CCCN1C(=O)[C@H](CO)NC(=O)[C@@H](Cc1ccc(O)cc1)NC(=O)[C@@H]1CCCN1C(=O)[C@H](CCCNC(=N)N)NC(=O)[C@@H]1CCCN1C(=O)[C@H](CCCCN)NC(=O)CN)[C@@H](C)O)C(=O)N[C@@H](CCCNC(=N)N)C(=O)N[C@H](C(=O)O)C(C)C` [Peptide 6, GKPRP DYSPRP TSHPR PIRV] (H-GKPRP[dY]SPRPTSHPRPIRV-OH; N-terminus assumed) showed a minimal inhibitory concentration (MIC) of 6.3 µM (≈ 13.9 µg/mL). For `CC[C@H](C)[C@H](NC(=O)[C@@H]1CCCN1C(=O)[C@H](CCCNC(=N)N)NC(=O)[C@@H]1CCCN1C(=O)[C@H](Cc1c[nH]cn1)NC(=O)[C@H](CO)NC(=O)[C@@H](NC(=O)[C@@H]1CCCN1C(=O)[C@H](CCCNC(=N)N)NC(=O)[C@@H]1CCCN1C(=O)[C@H](CO)NC(=O)C[C@H](Cc1ccc(O)cc1)NC(=O)[C@@H]1CCCN1C(=O)[C@H](CCCNC(=N)N)NC(=O)[C@@H]1CCCN1C(=O)[C@H](CCCCN)NC(=O)CN)[C@@H](C)O)C(=O)N[C@@H](CCCNC(=N)N)C(=O)N[C@H](C(=O)O)C(C)C` [Peptide 9, GKPRP βYSPRP TSHPR PIRV] (H-GKPRP[β3hY]SPRPTSHPRPIRV-OH), the MIC was 3.1 µM (≈ 6.86 µg/mL). For the molecule `CC[C@H](C)[C@H](NC(=O)[C@@H]1CCCN1C(=O)[C@H](CCCNC(=N)N)NC(=O)[C@@H]1CCCN1C(=O)[C@H](Cc1c[nH]cn1)NC(=O)[C@H](CO)NC(=O)[C@@H](NC(=O)[C@@H]1CCCN1C(=O)[C@H](CCCNC(=N)N)NC(=O)[C@@H]1CCCN1C(=O)C[C@H](CO)NC(=O)[C@H](Cc1ccc(O)cc1)NC(=O)[C@@H]1CCCN1C(=O)[C@H](CCCNC(=N)N)NC(=O)[C@@H]1CCCN1C(=O)[C@H](CCCCN)NC(=O)CN)[C@@H](C)O)C(=O)N[C@@H](CCCNC(=N)N)C(=O)N[C@H](C(=O)O)C(C)C` [Peptide 10, GKPRP YβSPRP TSHPR PIRV] (H-GKPRPY[β3hS]PRPTSHPRPIRV-OH), the minimal inhibitory concentration (MIC) came out at 3.1 µM (≈ 6.86 µg/mL). Next, `CC[C@H](C)[C@H](NC(=O)[C@@H]1CCCN1C(=O)[C@H](CCCNC(=N)N)NC(=O)[C@@H]1CCCN1C(=O)[C@H](Cc1c[nH]cn1)NC(=O)[C@H](CO)NC(=O)[C@@H](NC(=O)[C@@H]1CCCN1C(=O)[C@H](CCCNC(=N)N)NC(=O)[C@@H]1CCCN1C(=O)C[C@H](CO)NC(=O)C[C@H](Cc1ccc(O)cc1)NC(=O)[C@@H]1CCCN1C(=O)[C@H](CCCNC(=N)N)NC(=O)[C@@H]1CCCN1C(=O)[C@H](CCCCN)NC(=O)CN)[C@@H](C)O)C(=O)N[C@@H](CCCNC(=N)N)C(=O)N[C@H](C(=O)O)C(C)C` [Peptide 11, GKPRP βYβSPRP TSHPR PIRV] (H-GKPRP[β3hY][β3hS]PRPTSHPRPIRV-OH): 12.5 µM (≈ 27.8 µg/mL); `CC[C@H](C)[C@H](NC(=O)[C@@H]1CCCN1C(=O)[C@H](CCCNC(=N)N)NC(=O)[C@@H]1CCCN1C(=O)[C@H](Cc1c[nH]cn1)NC(=O)[C@H](CO)NC(=O)[C@@H](NC(=O)[C@@H]1CCCN1C(=O)[C@H](CCCNC(=N)N)NC(=O)[C@@H]1CCCN1C(=O)[C@@H](NC(=O)[C@H](Cc1ccc(O)cc1)NC(=O)[C@@H]1CCCN1C(=O)[C@H](CCCNC(=N)N)NC(=O)[C@@H]1CCCN1C(=O)[C@H](CCCCN)NC(=O)CCCCN)[C@@H](C)O)[C@@H](C)O)C(=O)N[C@@H](CCCNC(=N)N)C(=O)N[C@H](C(=O)O)C(C)C` [Peptide 12, AvaKPRP YTPRP TSHPR PIRV] (H-[Ava]KPRPYTPRPTSHPRPIRV-OH; N-terminus assumed): 6.3 µM (≈ 14.2 µg/mL); `CC[C@H](C)[C@H](NC(=O)[C@@H]1CCCN1C(=O)[C@H](CCCNC(=N)N)NC(=O)[C@@H]1CCCN1C(=O)[C@H](Cc1c[nH]cn1)NC(=O)[C@H](CO)NC(=O)[C@@H](NC(=O)[C@@H]1CCCN1C(=O)[C@H](CCCNC(=N)N)NC(=O)[C@@H]1CCCN1C(=O)[C@@H](NC(=O)[C@H](Cc1ccc(O)cc1)NC(=O)[C@@H]1CCCN1C(=O)[C@H](CCCNC(=N)N)NC(=O)[C@@H]1CCCN1C(=O)[C@H](CCCCN)NC(=O)CCCN)[C@@H](C)O)[C@@H](C)O)C(=O)N[C@@H](CCCNC(=N)N)C(=O)N[C@H](C(=O)O)C(C)C` [Peptide 13, AbuKPRP YTPRP TSHPR PIRV] (H-[GABA]KPRPYTPRPTSHPRPIRV-OH; N-terminus assumed): 6.3 µM (≈ 14.1 µg/mL). The value for `CC[C@H](C)[C@H](NC(=O)[C@@H]1CCCN1C(=O)[C@H](CCCNC(=N)N)NC(=O)[C@@H]1CCCN1C(=O)[C@H](Cc1c[nH]cn1)NC(=O)[C@H](CO)NC(=O)[C@@H](NC(=O)[C@@H]1CCCN1C(=O)[C@H](CCCNC(=N)N)NC(=O)[C@@H]1CCCN1C(=O)[C@@H](NC(=O)[C@H](Cc1ccc(O)cc1)NC(=O)[C@@H]1CCCN1C(=O)[C@H](CCCNC(=N)N)NC(=O)[C@@H]1CCCN1C(=O)[C@H](CCCCN)NC(=O)CNC)[C@@H](C)O)[C@@H](C)O)C(=O)N[C@@H](CCCNC(=N)N)C(=O)N[C@H](C(=O)O)C(C)C` [Peptide 15, SarKPRP YTPRP TSHPR PIRV] (H-[Sar]KPRPYTPRPTSHPRPIRV-OH; N-terminus assumed) was 6.3 µM (≈ 14 µg/mL).
